This is an account of results in patent US11155525B2 (Sanford Burnham Prebys Medical Discovery Institute, priority 2015, dated 2021).

Each structure is given as a SMILES string.

The assay has as its target T1, human apelin receptor (Homo sapiens, UniProt P35414).
T1 construct: host or cells: CHO cells
T1 sequence (P35414 1-380): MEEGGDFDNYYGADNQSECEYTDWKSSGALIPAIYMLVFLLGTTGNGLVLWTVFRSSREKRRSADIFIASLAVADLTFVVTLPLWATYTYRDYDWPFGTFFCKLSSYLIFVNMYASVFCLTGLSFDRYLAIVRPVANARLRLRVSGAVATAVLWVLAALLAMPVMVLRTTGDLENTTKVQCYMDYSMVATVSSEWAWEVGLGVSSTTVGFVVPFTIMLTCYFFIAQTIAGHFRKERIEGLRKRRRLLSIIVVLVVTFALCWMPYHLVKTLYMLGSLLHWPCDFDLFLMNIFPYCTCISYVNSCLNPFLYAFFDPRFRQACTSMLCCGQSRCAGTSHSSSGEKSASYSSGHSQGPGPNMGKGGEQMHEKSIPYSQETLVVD
Nature of the assay: Measurement of apelin receptor agonist activity (cell-based assay determining the amount of intracellular cAMP). The conditions noted are these: CHO cells stably expressing the human apelin receptor, Forskolin 10 μM, 30 minutes, 100% efficacy = [Pyr1]-apelin-13 0.300 μM, concentration giving 50% efficacy. On the procedure:
Measurement of Apelin Receptor Agonist Activity
The apelin receptor agonist activity of the compound represented by formula (I) or (II) of the present invention was measured by cell-based assay for determining the amount of intracellular cAMP.
CHO cells (DiscoveRx Corp.) stably expressing the human apelin receptor were inoculated to wells of a microtiter plate and cultured overnight at 37° C. under conditions of 5% CO2.
Each test compound and Forskolin were added to the wells at the same time. Specifically, the test compound dissolved in DMSO was diluted with a Forskolin-containing buffer [DMEM/F-12, HEPES, no phenol red (#11039, GIBCO)] to prepare a mixed solution containing the test compound at a final concentration of […] (common ratio: 3, serial dilution: 11), Forskolin at a final concentration of 10 μM, and DMSO at a final concentration of 0.3% v/v, which was then added to the wells (N═4).
After 30 minutes, the cells were lysed, and HitHunter cAMP XS+ Assay #90-0075L (DiscoveRx Corp.) was added to the cell lysate. The mixture was left overnight, and the resulting chemiluminescence signals were then detected using Analyst GT (Molecular Devices LLC.) to determine the amount of cAMP.
The amount of cAMP determined by the addition of a positive control [Pyr1]-apelin-13 (final concentration: 0.300 μM) and Forskolin (final concentration: 10 μM) at the same time was used as an index to define 100% efficacy. The amount of cAMP determined by the addition of Forskolin (final concentration: 10 μM) alone was used as an index to define 0% efficacy.
A dose response curve was prepared from the final concentration of the test compound and the determined amount of cAMP using Sigmaplot 12.0.
Take `COc1cccc(OC)c1-n1c(SCc2cc(=O)[nH]c(=O)[nH]2)nnc1-c1ccc(C)o1` [Example 14, 6-({[4-(2,6-Dimethoxyphenyl)-5-(5-methylfuran-2-yl)-4H-1,2,4-triazol-3-yl]sulfanyl}methyl)pyrimidine-2,4(1H,3H)-dione]: the EC50 came out at 424 nM. This counts as sub-micromolar. Compound `COc1cccc(OC)c1-n1c(/C=C/C(=O)O)nnc1-c1ccc(C)o1` [Example 64, Ammonium (2E)-3-[4-(2,6-dimethoxyphenyl)-5-(5-methylfuran-2-yl)-4H-1,2,4-triazol-3-yl]prop-2-enoate] displayed an EC50 of 52 nM. For the compound `COc1cccc(OC)c1-n1c(SCc2ccc(C(N)=O)cc2)nnc1-c1ccc(C)o1` [Example 105, 4-({[4-(2,6-Dimethoxyphenyl)-5-(5-methylfuran-2-yl)-4H-1,2,4-triazol-3-yl]sulfanyl}methyl)benzamide], the EC50 is 1200 nM. Regarding `COc1cccc(OC)c1-n1c(-c2ccc(C)o2)nnc1-c1ccccc1C(=O)O` [Example 59, 2-[4-(2,6-Dimethoxyphenyl)-5-(5-methylfuran-2-yl)-4H-1,2,4-triazol-3-yl]benzoic acid], the EC50 turned out to be 349 nM. The figure for `COc1cccc(OC)c1-n1c(SCc2cccnn2)nnc1-c1ccc(C)o1` [Example 75, 3-({[4-(2,6-Dimethoxyphenyl)-5-(5-methylfuran-2-yl)-4H-1,2,4-triazol-3-yl]sulfanyl}methyl)pyridazine] is 128 nM; for `COc1cccc(OC)c1-n1c(CN(C(=O)c2ccc(C)cc2)C(=O)c2ccc(C)cc2)nnc1-c1ccc(C)o1` [Example 72, N-{[4-(2,6-Dimethoxyphenyl)-5-(5-methylfuran-2-yl)-4H-1,2,4-triazol-3-yl]methyl}-4-methyl-N-(4-methylbenzoyl)benzamide] it is 95 nM. With `COc1cccc(OC)c1-n1c(SC(C(=O)O)c2cccc3ccccc23)nnc1-c1ccc(C)o1` (centres unmarked) [Example 38, {[4-(2,6-Dimethoxyphenyl)-5-(5-methylfuran-2-yl)-4H-1,2,4-triazol-3-yl]sulfanyl}(naphthalen-1-yl)acetic acid], the response was half-maximal at 9 nM (EC50). Compared with the last compound, the EC50 is about 11-fold lower.

As for `CCCC(Sc1nnc(-c2ccc(C)o2)n1-c1c(OC)cccc1OC)C(=O)O` (centres unmarked) [Example 42, 2-{[4-(2,6-Dimethoxyphenyl)-5-(5-methylfuran-2-yl)-4H-1,2,4-triazol-3-yl]sulfanyl}pentanoic acid], a half-maximal effect (EC50) was put at 12 nM. Consider `COc1cccc(OC)c1-n1c(/C=C/C(C)=O)nnc1-c1ccc(C)o1` [Example 20, (3E)-4-[4-(2,6-Dimethoxyphenyl)-5-(5-methylfuran-2-yl)-4H-1,2,4-triazol-3-yl]but-3-en-2-one], for which the EC50 came out at 729 nM. As to `COc1ccnc(OC)c1-n1c(SCC(=O)O)nnc1-c1ccc(C)o1` [Example 34, {[4-(2,4-Dimethoxypyridin-3-yl)-5-(5-methylfuran-2-yl)-4H-1,2,4-triazol-3-yl]sulfanyl}acetic acid], the EC50 came to 152 nM.

Compound `COC(=O)/C=C\c1nnc(-c2ccc(C)o2)n1-c1c(OC)cccc1OC` [Example 55, Methyl (2Z)-3-[4-(2,6-dimethoxyphenyl)-5-(5-methylfuran-2-yl)-4H-1,2,4-triazol-3-yl]prop-2-enoate] gave an EC50 of 1920 nM. Compound `COc1cccc(OC)c1-n1c(/C=C/C(=O)O)nnc1-c1ccc(C)o1` [Example 65, Sodium (2E)-3-[4-(2,6-dimethoxyphenyl)-5-(5-methylfuran-2-yl)-4H-1,2,4-triazol-3-yl]prop-2-enoate] came in with an EC50 of 75 nM. Compound `COc1cccc(OC)c1-n1c(SC(C(=O)O)C(C)C)nnc1-c1ccc(C)o1` (centres unmarked) [Example 43, 2-{[4-(2,6-Dimethoxyphenyl)-5-(5-methylfuran-2-yl)-4H-1,2,4-triazol-3-yl]sulfanyl}-3-methylbutanoic acid] displayed an EC50 of 39 nM. This EC50 is about 1.9-fold lower than that of the compound before. `COc1cccc(OC)c1-n1c(SCC(=O)O)nnc1-c1ccc(C)o1` [Example 5, {[4-(2,6-Dimethoxyphenyl)-5-(5-methylfuran-2-yl)-4H-1,2,4-triazol-3-yl]sulfanyl}acetic acid] showed an EC50 of 26 nM.

In turn, `COc1cccc(OC)c1-n1c(SCc2n[nH]c(=O)o2)nnc1-c1ccc(C)o1` [Example 101, 5-({[4-(2,6-Dimethoxyphenyl)-5-(5-methylfuran-2-yl)-4H-1,2,4-triazol-3-yl]sulfanyl}methyl)-1,3,4-oxadiazol-2(3H)-one] showed an EC50 of 587 nM. This EC50 is about 23-fold higher than that of the compound before. Compound `CCOC(=O)COCc1nnc(-c2ccc(C)o2)n1-c1c(OC)cccc1OC` [Example 66, Ethyl {[4-(2,6-dimethoxyphenyl)-5-(5-methylfuran-2-yl)-4H-1,2,4-triazol-3-yl]methoxy}acetate] displayed an EC50 of 817 nM. With `COc1cccc(OC)c1-n1c(SC(C)(C)C(=O)O)nnc1-c1ccc(C)o1` [Example 36, 2-{[4-(2,6-Dimethoxyphenyl)-5-(5-methylfuran-2-yl)-4H-1,2,4-triazol-3-yl]sulfanyl}-2-methylpropanoic acid], a half-maximal effect (EC50) was put at 108 nM. `COc1cccc(OC)c1-n1c(SCC(=O)O)nnc1-c1ccccc1` [Example 28, {[4-(2,6-Dimethoxyphenyl)-5-phenyl-4H-1,2,4-triazol-3-yl]sulfanyl}acetic acid] came in with an EC50 of 1420 nM. Consider `COc1cccc(OC)c1-n1c(SCc2cccc(C(=O)O)c2)nnc1-c1ccc(C)o1` [Example 80, 3-({[4-(2,6-Dimethoxyphenyl)-5-(5-methylfuran-2-yl)-4H-1,2,4-triazol-3-yl]sulfanyl}methyl)benzoic acid], for which the EC50 is 1530 nM. The EC50 values of the last two compounds are within 1.5-fold of each other. Turning to `COc1cccc(OC)c1-n1c(CNS(C)(=O)=O)nnc1-c1ccc(C)o1` [Example 71, N-{[4-(2,6-Dimethoxyphenyl)-5-(5-methylfuran-2-yl)-4H-1,2,4-triazol-3-yl]methyl}methanesulfonamide], the EC50 is 1070 nM. As for `COC(=O)c1ccc(CSc2nnc(-c3ccc(C)o3)n2-c2c(OC)cccc2OC)cc1` [Example 81, Methyl 4-({[4-(2,6-dimethoxyphenyl)-5-(5-methylfuran-2-yl)-4H-1,2,4-triazol-3-yl]sulfanyl}methyl)benzoate], the midpoint of the response, the EC50, lay at 71 nM.

In turn, `COc1cccc(OC)c1-n1c(SCc2nccs2)nnc1-c1ccc(C)o1` [Example 76, 4-(2,6-Dimethoxyphenyl)-3-(5-methylfuran-2-yl)-5-[(1,3-thiazol-2-ylmethyl)sulfanyl]-4H-1,2,4-triazole] yielded an EC50 of 158 nM. The compound `COc1cccc(OC)c1-n1c(CCC(C)O)nnc1-c1ccc(C)o1` (centres unmarked) [Example 25, 4-[4-(2,6-Dimethoxyphenyl)-5-(5-methylfuran-2-yl)-4H-1,2,4-triazol-3-yl]butan-2-ol] registered an EC50 of 1720 nM. Compound `CCOC(=O)C(=O)NCc1nnc(-c2ccc(C)o2)n1-c1c(OC)cccc1OC` [Example 97, Ethyl ({[4-(2,6-dimethoxyphenyl)-5-(5-methylfuran-2-yl)-4H-1,2,4-triazol-3-yl]methyl}amino)(oxo)acetate] came in with an EC50 of 273 nM.

Compound `COC(=O)C(Sc1nnc(-c2ccc(C)o2)n1-c1c(OC)cccc1OC)c1cccc2ccccc12` (centres unmarked) [Example 37, Methyl {[4-(2,6-dimethoxyphenyl)-5-(5-methylfuran-2-yl)-4H-1,2,4-triazol-3-yl]sulfanyl}(naphthalen-1-yl)acetate] displayed an EC50 of 825 nM.

`COc1cccc(OC)c1-n1c(CS(=O)(=O)c2nnc[nH]2)nnc1-c1ccc(C)o1` [Example 69] showed an EC50 of 696 nM.

A word on the EC50: it is the concentration at which the effect is half-maximal. Low values mean higher potency in that assay, high ones lower potency in that assay.
